Values after ≈ are worked out from the molar mass of the structure shown. Some results are limits rather than exact numbers.

For the data set the following is noted: buffer; pH 7.4; 200.0 µM.
`Cn1c(=O)n(C)c2cc(NC(=O)COc3ccc(F)cc3)ccc21` registered a kinetic solubility of 40.7 µg/mL (≈ 124 µM).

Take `COC(=O)c1cc(C(=O)OCC(=O)N2CCCCC2)cc([N+](=O)[O-])c1`: the solubility (kinetic) was above 52.5 µg/mL.

In the case of `Cc1cccc(NC(=O)NC2CC3CCC(C2)N3Cc2ccco2)c1` (configuration not stated), the kinetic solubility was 11.1 µg/mL (≈ 32.7 µM).

The compound `C=CCN(C(=O)CN1CCCCC1)c1nc(-c2ccccc2)cs1` registered a kinetic solubility of 2.4 µg/mL (≈ 7.03 µM).

`Cc1cc(NC(=O)CN2C(=O)c3ccccc3C2=O)no1` registered a solubility (kinetic) of 37.9 µg/mL (≈ 133 µM).

In turn, `COc1ccc(C(=O)/C=C2/C(=O)Nc3ccccc32)c(OC)c1` had a kinetic solubility of 12.7 µg/mL (≈ 41.1 µM).

Regarding `O=C(Nc1cccc2ncccc12)C(c1ccccc1)c1ccccc1`, the kinetic solubility is below 0.4 µg/mL.

Compound `Nc1nonc1C(=O)N1CCCCC1` showed a solubility (kinetic) of 28.2 µg/mL (≈ 144 µM).

`CCOc1ccccc1Nc1ccc2nonc2c1[N+](=O)[O-]` displayed a kinetic solubility below 0.2 µg/mL.

`Cc1ccc(C(=O)OCC(=O)NC2CCCc3ccccc32)o1` (configuration not stated) yielded a solubility (kinetic) of 13.1 µg/mL (≈ 41.8 µM).

`CCOC(=O)Cc1csc(NC(=O)Nc2ccc(Cl)cc2)n1`: the solubility (kinetic) amounted to 1.3 µg/mL (≈ 3.83 µM).

`CC(C)C1C(=O)CC(c2ccccc2)NC1c1ccccc1` (configuration not stated) returned a solubility (kinetic) of 1.6 µg/mL (≈ 5.45 µM).

Take `O=C(CNC(=O)c1ccc(OC(F)F)cc1)NC1CCCc2ccccc21` (configuration not stated): the solubility (kinetic) was 5.6 µg/mL (≈ 15 µM).

`CC(C)(C)C(O)(CC#CCN1CCCC1)c1ccccc1.Cl` (configuration not stated) registered a solubility (kinetic) above 48.3 µg/mL.

`Cn1c(=O)oc2cc(NC(=O)CCl)ccc21` registered a kinetic solubility of 24.2 µg/mL (≈ 101 µM).

For `Cc1ccc(S(=O)(=O)N2CCCC2)s1`, the solubility (kinetic) amounted to 32.3 µg/mL (≈ 140 µM).

`CSCCNC(=O)c1ccc2nc(C3CCCCC3)oc2c1` yielded a solubility (kinetic) of 13.2 µg/mL (≈ 41.5 µM).

Turning to `Cc1cccc(OCC(O)CN2CCOCC2)c1.Cl` (configuration not stated), the kinetic solubility was above 43.2 µg/mL.

The compound `COc1ccc2[nH]cc(CCn3ccc(=O)c(C)c3C)c2c1` showed a kinetic solubility of 42.2 µg/mL (≈ 142 µM).

`O=C(COC(=O)c1ccncc1)c1ccccc1` gave a kinetic solubility above 36.2 µg/mL.

`Cc1cc(C)c2c(CC(=O)O)c(C)[nH]c2c1`: the solubility (kinetic) amounted to 28.5 µg/mL (≈ 131 µM).

Compound `Cn1nccc1NC(=O)c1nccnc1C(=O)O` gave a kinetic solubility above 37.1 µg/mL.

Take `CC(NC(=O)COC(=O)c1cccnc1Cl)C12CC3CC(CC(C3)C1)C2` (configuration not stated): the kinetic solubility came to 52.4 µg/mL (≈ 139 µM).

As for `CCOC(=O)c1cc2c(ccn2C)n1CC(=O)N1C(C)CCCC1C` (configuration not stated), the kinetic solubility was above 51.8 µg/mL.

`Cc1ccsc1C(=O)OCC(=O)NCc1ccccc1` showed a kinetic solubility of 10.9 µg/mL (≈ 37.7 µM).

In turn, `O=C1NCCN/C1=C\C(=O)c1cccc(Br)c1` had a kinetic solubility above 44.3 µg/mL.

On to `C=Cn1ccnc1P(=S)(c1ccc(Cl)cc1)c1nccn1C=C`, for which the kinetic solubility came out at 46.9 µg/mL (≈ 130 µM).

`Cc1cccn2c(=O)c(C=O)c(Nc3ccccc3)nc12` yielded a solubility (kinetic) below 0.2 µg/mL.

Compound `CC(C)C(NC(=O)c1ccc(Cl)cc1)C(=O)NCC1CCCO1` (configuration not stated) returned a kinetic solubility above 50.8 µg/mL.

Take `CCc1ccc(N2C(=O)C3C4C=CC(CC4)C3C2=O)cc1` (configuration not stated): the kinetic solubility was 14.3 µg/mL (≈ 50.8 µM).

`CC(OC(=O)Cc1c[nH]c2ccccc12)C(=O)NC1(C#N)CCCCC1` (configuration not stated) displayed a solubility (kinetic) above 53 µg/mL.

Consider `O=C(N/N=C/c1cccnc1)c1ccccc1Br`, for which the solubility (kinetic) was above 45.6 µg/mL.

In turn, `CCOc1ncccc1C(=O)Nc1ccc2nc(C)sc2c1` gave a solubility (kinetic) of 4.2 µg/mL (≈ 13.4 µM).

The compound `CCOC(=O)CNC(=O)c1c(C)nn(C)c1Cl` gave a kinetic solubility above 39 µg/mL.

Take `CC1(/[N+]([O-])=C\c2ccccc2F)CCCCC1=O` (configuration not stated): the kinetic solubility was above 37.4 µg/mL.

The compound `CC1(NC(=O)Nc2cccc3ccccc23)CCS(=O)(=O)C1` (configuration not stated) came in with a solubility (kinetic) of 43 µg/mL (≈ 135 µM).

With `CC(=O)CN1C(=O)NC2(CCCc3ccccc32)C1=O` (configuration not stated), the kinetic solubility was above 40.8 µg/mL.

`O=C(NN=Cc1cc(Br)c(O)c(Br)c1)c1ccccc1NS(=O)(=O)c1cccs1`: the solubility (kinetic) was above 83.9 µg/mL.

As to `CC1CCN(S(=O)(=O)c2cccc(S(=O)(=O)N3CCCC3)c2)CC1`, the solubility (kinetic) came out at 28.1 µg/mL (≈ 75.4 µM).

With `COc1cccc(NC(=O)CN2C(=O)C(=O)N(C3CCCC3)C2=O)c1`, the kinetic solubility is above 51.8 µg/mL.

In turn, `Cc1csc(NC(=O)c2c(-c3ccccc3)noc2C)n1` registered a kinetic solubility of 37.4 µg/mL (≈ 125 µM).

On to `COc1ccc(NC(=O)Cc2ccsc2)c(OC)c1`, for which the kinetic solubility was above 41.6 µg/mL.

Regarding `O=C1CC(c2ccccc2)CC(O)=C1C=NCCc1ccccc1` (configuration not stated), the solubility (kinetic) stood at 2.1 µg/mL (≈ 6.57 µM).

On to `Cc1cccc(-n2c(/C=C/c3ccccn3)nc3ccccc3c2=O)c1`, for which the solubility (kinetic) was found to be 0.5 µg/mL (≈ 1.47 µM).

In turn, `CCOc1ccccc1N(CC(=O)N1CCCC1)S(C)(=O)=O` yielded a solubility (kinetic) above 49 µg/mL.

`CC(CC(=O)NCc1ccc(F)cc1)c1ccccc1` (configuration not stated) displayed a kinetic solubility above 40.7 µg/mL.

With `Cc1ccc(C)c(NC(=O)CN(C)C(=O)c2ccncc2)c1`, the solubility (kinetic) amounted to 39.1 µg/mL (≈ 131 µM).

Consider `O=C1C2C3C=CC(CC3)C2C(=O)N1c1ccc(F)cc1` (configuration not stated), for which the solubility (kinetic) amounted to 17.9 µg/mL (≈ 66 µM).

In the case of `Cc1ccc2nc(-c3ccccn3)cc(C(=O)NC(C)C(C)(C)C)c2c1` (configuration not stated), the solubility (kinetic) was 3.2 µg/mL (≈ 9.21 µM). This solubility kinetic lies about 5.6-fold lower than the previous one.

In turn, `O=S1(=O)N=C(N2CCCC2)c2ccccc21` returned a kinetic solubility of 31.4 µg/mL (≈ 133 µM).

Consider `COC(=O)c1sccc1NC(=O)c1cccc(F)c1`, for which the kinetic solubility is below 0.6 µg/mL.

Compound `N#Cc1ccsc1NC(=O)C1=COCCO1` had a kinetic solubility above 35.4 µg/mL.

By solubility (kinetic) is commonly meant solubility judged after dilution from a stock solution rather than from solid.

These data come from PubChem BioAssay AID1996.
